Measured values taken from publication PMC3642328, “Ataxia Telangiectasia-Mutated (ATM) Kinase Activity Is Regulated by ATP-driven Conformational Changes in the Mre11/Rad50/Nbs1 (MRN) Complex*^([image sbox.jpg])” (The Journal of Biological Chemistry, 2013).

How the values were obtained:
Assay type in all cases: biochemical
[1] = target: T1, ATM (Homo sapiens, UniProt Q13315, Y2755A); assay: kinase assay, GST-p53 Ser-15 phosphorylation, Western blot; conditions: H2O2-activated ATM without MRN; analog 1 mM; pH 7.5, 5 mM Mg, 30 C
T1 construct: full-length, Flag-tagged and HA-tagged, transiently expressed in human 293T cells, purified as dimer
T1 sequence (Q13315 2-3056 Y2755A): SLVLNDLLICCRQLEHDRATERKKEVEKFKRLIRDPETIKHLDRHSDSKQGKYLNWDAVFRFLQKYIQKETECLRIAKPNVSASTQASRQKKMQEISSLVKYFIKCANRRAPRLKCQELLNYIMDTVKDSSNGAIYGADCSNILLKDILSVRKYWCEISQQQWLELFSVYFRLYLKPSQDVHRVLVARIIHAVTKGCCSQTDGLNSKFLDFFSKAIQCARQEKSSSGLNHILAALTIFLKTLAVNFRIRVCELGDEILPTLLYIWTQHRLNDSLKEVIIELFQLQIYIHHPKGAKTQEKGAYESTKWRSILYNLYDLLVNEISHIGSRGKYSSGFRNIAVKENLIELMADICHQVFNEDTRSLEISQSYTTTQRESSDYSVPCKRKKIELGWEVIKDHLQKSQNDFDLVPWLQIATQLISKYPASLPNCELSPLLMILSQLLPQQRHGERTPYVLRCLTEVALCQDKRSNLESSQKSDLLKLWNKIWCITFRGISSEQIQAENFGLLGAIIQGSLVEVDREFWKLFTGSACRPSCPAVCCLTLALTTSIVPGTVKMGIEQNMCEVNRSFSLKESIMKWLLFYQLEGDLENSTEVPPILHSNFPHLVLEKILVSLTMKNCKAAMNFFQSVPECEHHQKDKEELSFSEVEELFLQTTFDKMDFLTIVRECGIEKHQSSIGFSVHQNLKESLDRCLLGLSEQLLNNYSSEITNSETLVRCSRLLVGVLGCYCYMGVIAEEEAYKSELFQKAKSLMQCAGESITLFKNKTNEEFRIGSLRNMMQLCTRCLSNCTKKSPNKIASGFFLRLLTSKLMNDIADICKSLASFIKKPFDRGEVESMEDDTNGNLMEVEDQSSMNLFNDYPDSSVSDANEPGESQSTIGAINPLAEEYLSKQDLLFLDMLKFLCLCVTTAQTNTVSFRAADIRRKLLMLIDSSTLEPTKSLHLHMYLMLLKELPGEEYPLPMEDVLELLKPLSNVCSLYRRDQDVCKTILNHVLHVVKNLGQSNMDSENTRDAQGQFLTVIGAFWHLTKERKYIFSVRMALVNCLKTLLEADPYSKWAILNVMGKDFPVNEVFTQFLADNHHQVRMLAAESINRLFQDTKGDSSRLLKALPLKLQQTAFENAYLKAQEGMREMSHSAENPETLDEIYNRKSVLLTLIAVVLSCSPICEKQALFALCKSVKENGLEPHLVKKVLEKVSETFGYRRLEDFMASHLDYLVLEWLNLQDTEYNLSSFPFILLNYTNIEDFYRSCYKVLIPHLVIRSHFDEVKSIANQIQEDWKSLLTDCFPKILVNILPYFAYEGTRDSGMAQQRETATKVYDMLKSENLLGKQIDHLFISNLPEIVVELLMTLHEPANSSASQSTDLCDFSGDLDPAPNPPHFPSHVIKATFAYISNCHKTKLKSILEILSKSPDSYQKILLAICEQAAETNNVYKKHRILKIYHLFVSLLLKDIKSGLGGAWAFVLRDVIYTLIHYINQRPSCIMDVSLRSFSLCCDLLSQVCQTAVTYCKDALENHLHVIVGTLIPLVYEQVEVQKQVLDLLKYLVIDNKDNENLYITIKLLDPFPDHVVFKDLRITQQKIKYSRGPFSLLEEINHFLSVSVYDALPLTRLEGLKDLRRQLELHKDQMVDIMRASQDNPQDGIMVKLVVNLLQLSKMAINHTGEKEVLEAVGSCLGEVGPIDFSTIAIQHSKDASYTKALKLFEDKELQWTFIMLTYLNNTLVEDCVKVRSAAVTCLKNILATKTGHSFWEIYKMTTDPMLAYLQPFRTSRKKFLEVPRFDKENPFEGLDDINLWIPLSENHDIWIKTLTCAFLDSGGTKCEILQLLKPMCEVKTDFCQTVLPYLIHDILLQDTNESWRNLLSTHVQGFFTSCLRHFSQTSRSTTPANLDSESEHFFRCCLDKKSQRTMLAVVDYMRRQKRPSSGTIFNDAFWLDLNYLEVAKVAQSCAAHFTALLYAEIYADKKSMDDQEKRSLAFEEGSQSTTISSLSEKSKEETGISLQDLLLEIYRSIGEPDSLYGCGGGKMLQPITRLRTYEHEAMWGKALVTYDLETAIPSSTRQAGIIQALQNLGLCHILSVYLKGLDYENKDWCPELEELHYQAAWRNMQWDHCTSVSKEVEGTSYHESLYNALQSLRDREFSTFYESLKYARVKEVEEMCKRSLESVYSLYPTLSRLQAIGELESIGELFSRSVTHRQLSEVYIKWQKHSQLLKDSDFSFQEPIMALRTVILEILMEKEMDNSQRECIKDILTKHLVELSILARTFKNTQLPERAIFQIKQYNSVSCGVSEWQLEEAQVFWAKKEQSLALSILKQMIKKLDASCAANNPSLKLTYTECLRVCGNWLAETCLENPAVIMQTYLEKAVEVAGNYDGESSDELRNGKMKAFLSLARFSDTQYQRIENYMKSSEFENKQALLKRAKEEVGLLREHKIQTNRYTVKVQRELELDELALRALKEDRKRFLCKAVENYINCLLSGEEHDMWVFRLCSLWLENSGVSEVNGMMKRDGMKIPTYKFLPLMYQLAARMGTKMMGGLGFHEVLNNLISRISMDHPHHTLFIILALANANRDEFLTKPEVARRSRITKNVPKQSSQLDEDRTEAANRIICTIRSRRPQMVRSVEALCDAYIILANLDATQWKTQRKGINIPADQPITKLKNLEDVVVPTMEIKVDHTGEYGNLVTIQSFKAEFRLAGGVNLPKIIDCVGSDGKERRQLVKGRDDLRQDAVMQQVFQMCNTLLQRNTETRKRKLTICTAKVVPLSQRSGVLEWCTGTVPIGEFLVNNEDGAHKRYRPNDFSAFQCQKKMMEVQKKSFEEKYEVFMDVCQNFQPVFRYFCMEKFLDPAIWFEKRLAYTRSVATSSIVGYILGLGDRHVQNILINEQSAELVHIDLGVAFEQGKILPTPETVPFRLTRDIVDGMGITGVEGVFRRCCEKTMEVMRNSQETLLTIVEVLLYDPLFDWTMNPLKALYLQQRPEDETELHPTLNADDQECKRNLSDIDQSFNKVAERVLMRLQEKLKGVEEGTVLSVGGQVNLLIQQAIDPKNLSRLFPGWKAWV

[2] = target: T2, MRN (nucleotide site of Rad50) (Homo sapiens, UniProt Q92878); assay: ATM kinase assay, inhibition of MRN/DNA-dependent activation; conditions: wild-type ATM, ATP present; pH 7.5, 5 mM Mg, 30 C; site (Rad50 ATP pocket) inferred
T2 construct: full-length Mre11/Rad50/Nbs1 coexpressed in Sf21 insect cells, purified; with Double-strand break repair protein MRE11; Nibrin
T2 sequence (Q92878 1-1312): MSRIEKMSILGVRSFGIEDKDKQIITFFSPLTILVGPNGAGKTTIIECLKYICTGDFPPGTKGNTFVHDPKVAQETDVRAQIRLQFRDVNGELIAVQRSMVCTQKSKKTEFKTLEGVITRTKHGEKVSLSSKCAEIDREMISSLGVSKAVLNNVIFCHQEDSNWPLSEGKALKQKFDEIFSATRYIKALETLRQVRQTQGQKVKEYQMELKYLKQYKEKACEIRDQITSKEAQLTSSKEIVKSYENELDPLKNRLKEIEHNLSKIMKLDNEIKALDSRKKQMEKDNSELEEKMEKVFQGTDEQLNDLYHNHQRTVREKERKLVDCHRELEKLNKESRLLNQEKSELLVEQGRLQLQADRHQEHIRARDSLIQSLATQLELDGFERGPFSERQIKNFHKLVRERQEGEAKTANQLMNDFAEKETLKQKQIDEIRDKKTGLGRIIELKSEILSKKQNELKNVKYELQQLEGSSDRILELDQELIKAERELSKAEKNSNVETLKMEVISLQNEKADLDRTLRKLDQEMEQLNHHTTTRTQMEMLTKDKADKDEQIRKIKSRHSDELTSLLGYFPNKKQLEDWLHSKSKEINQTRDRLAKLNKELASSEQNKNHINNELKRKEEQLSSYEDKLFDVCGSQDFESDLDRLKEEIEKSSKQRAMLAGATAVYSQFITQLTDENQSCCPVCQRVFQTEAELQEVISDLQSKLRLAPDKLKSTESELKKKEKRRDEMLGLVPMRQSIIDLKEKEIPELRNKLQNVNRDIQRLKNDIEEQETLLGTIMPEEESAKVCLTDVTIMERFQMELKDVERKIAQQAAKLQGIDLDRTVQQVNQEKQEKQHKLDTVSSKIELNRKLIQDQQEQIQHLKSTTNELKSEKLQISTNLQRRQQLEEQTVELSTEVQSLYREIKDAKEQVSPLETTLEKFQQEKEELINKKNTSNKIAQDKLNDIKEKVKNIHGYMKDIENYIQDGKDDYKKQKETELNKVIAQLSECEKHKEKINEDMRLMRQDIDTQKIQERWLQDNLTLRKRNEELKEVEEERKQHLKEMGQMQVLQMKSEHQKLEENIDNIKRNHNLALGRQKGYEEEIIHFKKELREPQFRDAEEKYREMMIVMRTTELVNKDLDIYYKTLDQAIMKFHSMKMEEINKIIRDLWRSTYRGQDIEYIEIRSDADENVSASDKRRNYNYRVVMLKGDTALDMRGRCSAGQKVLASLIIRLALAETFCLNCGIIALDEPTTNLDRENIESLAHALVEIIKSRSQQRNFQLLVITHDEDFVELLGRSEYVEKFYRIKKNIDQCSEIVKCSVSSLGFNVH
T2 sequence (P49959 2-708 partner): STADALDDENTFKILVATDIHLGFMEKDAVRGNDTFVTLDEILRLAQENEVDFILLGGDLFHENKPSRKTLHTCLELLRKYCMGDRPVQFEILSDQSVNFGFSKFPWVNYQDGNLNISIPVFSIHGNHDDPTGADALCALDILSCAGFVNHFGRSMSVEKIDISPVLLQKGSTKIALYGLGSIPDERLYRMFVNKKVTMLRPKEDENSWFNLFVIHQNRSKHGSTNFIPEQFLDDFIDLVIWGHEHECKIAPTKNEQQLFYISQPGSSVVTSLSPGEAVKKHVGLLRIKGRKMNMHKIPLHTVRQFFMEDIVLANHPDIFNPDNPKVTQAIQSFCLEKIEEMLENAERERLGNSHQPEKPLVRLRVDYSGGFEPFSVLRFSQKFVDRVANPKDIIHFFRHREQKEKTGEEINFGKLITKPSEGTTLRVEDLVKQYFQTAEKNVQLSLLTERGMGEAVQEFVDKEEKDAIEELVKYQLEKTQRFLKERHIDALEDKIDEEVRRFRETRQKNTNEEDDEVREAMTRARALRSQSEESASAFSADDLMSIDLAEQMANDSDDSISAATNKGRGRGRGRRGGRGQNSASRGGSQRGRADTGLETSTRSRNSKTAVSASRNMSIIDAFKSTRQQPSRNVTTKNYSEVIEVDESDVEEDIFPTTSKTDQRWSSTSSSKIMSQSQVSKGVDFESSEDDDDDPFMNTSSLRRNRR
T2 sequence (O60934 1-754 partner): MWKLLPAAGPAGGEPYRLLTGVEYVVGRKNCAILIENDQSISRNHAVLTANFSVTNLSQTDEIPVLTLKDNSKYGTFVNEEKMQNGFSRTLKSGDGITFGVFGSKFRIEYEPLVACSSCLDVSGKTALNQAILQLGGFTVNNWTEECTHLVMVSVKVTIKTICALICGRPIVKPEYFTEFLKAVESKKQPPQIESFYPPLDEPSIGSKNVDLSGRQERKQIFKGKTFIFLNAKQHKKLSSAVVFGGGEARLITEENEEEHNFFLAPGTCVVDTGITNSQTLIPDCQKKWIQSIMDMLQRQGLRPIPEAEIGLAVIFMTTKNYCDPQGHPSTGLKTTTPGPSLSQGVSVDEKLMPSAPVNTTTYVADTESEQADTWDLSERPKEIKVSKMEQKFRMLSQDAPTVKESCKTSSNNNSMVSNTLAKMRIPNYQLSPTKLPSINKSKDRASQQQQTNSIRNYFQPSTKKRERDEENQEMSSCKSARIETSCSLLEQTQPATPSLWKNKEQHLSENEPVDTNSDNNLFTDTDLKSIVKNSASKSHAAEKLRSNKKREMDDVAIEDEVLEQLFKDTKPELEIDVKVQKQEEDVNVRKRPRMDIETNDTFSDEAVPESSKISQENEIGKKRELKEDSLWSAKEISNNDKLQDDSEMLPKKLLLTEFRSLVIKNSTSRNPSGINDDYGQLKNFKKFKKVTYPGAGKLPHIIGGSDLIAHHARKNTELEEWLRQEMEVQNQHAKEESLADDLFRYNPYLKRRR

[3] = target: T2, MRN (nucleotide site of Rad50); assay: ATM kinase assay with analog-sensitive ATM Y2755A; conditions: N6-furfuryl-ATP as ATM nucleotide; MRN/DNA; AMP-PNP supports MRN activation of ATM

Structure (SMILES)	kinase assay, GST-p53 Ser-15 phosphorylation, Western blot [1]	ATM kinase assay, inhibition of MRN/DNA-dependent activation [2]	ATM kinase assay with analog-sensitive ATM Y2755A [3]
CCCC(C)Nc1ncnc2c1ncn2[C@@H]1O[C@H](COP(=O)(O)OP(=O)(O)OP(=O)(O)O)[C@@H](O)[C@H]1O (stereo partly drawn) [N6-(1-methylbutyl)-ATP, N6-(1-methylbutyl)adenosine-5′-O-triphosphate]	N6-(1-methylbutyl)-ATP was utilized by the Y2755A mutant ATM	N6-(1-methylbutyl)-ATP inhibited the activation of wild-type ATM by MRN/DNA	
Nc1ncnc2c1ncn2[C@@H]1O[C@H](COP(=O)(O)OP(=O)(O)NP(=O)(O)O)[C@@H](O)[C@H]1O [AMP-PNP, adenosine 5′-(β,γ-imino)triphosphate]			Y2755A ATM phosphorylated p53 in the presence of MRN/DNA, N6-(furfuryl)-ATP, and AMP-PNP
